*1 amine or outer side, *2 acyl side, *3 side chain or, on linkers, in order; H or OH if unused. Where a SMILES comes first, the peptide text is derived from it. [ ]: non-standard residue; d: D form. ξ: configuration not given here. MeBmt = C/C=C/C[C@@H](C)[C@@H](O)[C@H](NC)C(=O)O; X2 = C=CCOC(C)(C)C[C@@H](C(=O)[*:2])N(C)[*:1]; X1 = CCN(CC)CC[C@H](C(=O)[*:2])N(C)[*:1]; X3 = CN(C)CCC[C@H](C(=O)[*:2])N(C)[*:1]; dNMeDab(Me2) = CN[C@H](CCN(C)C)C(=O)O; NMeIle(3ξ) = CCC(C)[C@H](NC)C(=O)O; NMeL = CN[C@@H](CC(C)C)C(=O)O; NMeV = CN[C@H](C(=O)O)C(C)C; Abu = CC[C@H](N)C(=O)O
Tested on: HCV replicon in cell line ET (luc-ubi-neo/ET), Huh7 human hepatoma cells
Assay: HCV subgenomic replicon assay (luciferase end point)
Assay type: cell-based
Details: Hepatitis C virus, Huh-7, read-out: Antiviral activity: IC50 (μM)
Protocol: The anti-HCV activity of cyclosporine derivatives were evaluated in the HCV subgenomic replicon assay. The assay use the cell line ET (luc-ubi-neo/ET), which is a Huh7 human hepatoma cell line harboring an HCV replicon with a stable luciferase (Luc) reporter. HCV RNA replication was assessed by quantifying HCV replicon-derived luciferase activity. The antiviral activity of cyclosporine analogs were evaluated after drug treatment, the EC 50 and EC 90 were determined in subsequent assessments by using the luciferase end point (Krieger, N., et al., 2001, J. Virol. 75, 4614-4624; Pietschmann, T., et al., 2002, J. Virol. 76, 4008-4021; each of which is incorporated herein by reference).

## C/C=C/C[C@@H](C)[C@@H](O)[C@H]1C(=O)N[C@@H](CC)C(=O)N(C)[C@H](CCN(C)C)C(=O)N(C)[C@@H](CC(C)(C)O)C(=O)N[C@@H](C(C)C)C(=O)N(C)[C@@H](CC(C)C)C(=O)N[C@@H](C)C(=O)N[C@H](C)C(=O)N(C)[C@@H](CC(C)C)C(=O)N(C)[C@@H](CC(C)C)C(=O)N(C)[C@@H](C(C)C)C(=O)N1C [Example 20, [(R)-2-(N,N-Dimethylamino)ethyl-Sar]-3-[(γ-hydroxy)-NMeLeu]-4-cyclosporin]
  IC50: < 0.25 µM

## C/C=C/C[C@@H](C)[C@@H](O)[C@H]1C(=O)N[C@@H](CC)C(=O)N(C)[C@H](CCN(C)C)C(=O)N(C)[C@@H](CC(C)(C)OC)C(=O)N[C@@H](C(C)C)C(=O)N(C)[C@@H](CC(C)C)C(=O)N[C@@H](C)C(=O)N[C@H](C)C(=O)N(C)[C@@H](CC(C)C)C(=O)N(C)[C@@H](CC(C)C)C(=O)N(C)[C@@H](C(C)C)C(=O)N1C [Example 21, [(R)-2-(N,N-Dimethylamino)ethyl-Sar]-3-[(γ-methoxy)-NMeLeu]-4-cyclosporin]
  IC50: < 0.25 µM

## C=CCOC(C)(C)C[C@H]1C(=O)N[C@@H](C(C)C)C(=O)N(C)[C@@H](CC(C)C)C(=O)N[C@@H](C)C(=O)N[C@H](C)C(=O)N(C)[C@@H](CC(C)C)C(=O)N(C)[C@@H](CC(C)C)C(=O)N(C)[C@@H](C(C)C)C(=O)N(C)[C@@H]([C@H](O)[C@H](C)C/C=C/C)C(=O)N[C@@H](CC)C(=O)N(C)[C@H](CCN(C)C)C(=O)N1C [Example 22, [(R)-2-(N,N-Dimethylamino)ethyl-Sar]-3-[(γ-allyloxy)-NMeLeu]-4-cyclosporin] (cyclo(A[dA][NMeL][NMeL][NMeV][MeBmt][Abu][dNMeDab(Me2)][X2]V[NMeL]))
  IC50: < 0.25 µM

## C/C=C/C[C@@H](C)[C@@H](O)[C@H]1C(=O)N[C@@H](CC)C(=O)N(C)[C@H](CCN(C)C)C(=O)N(C)[C@@H](C(C)CC)C(=O)N[C@@H](C(C)C)C(=O)N(C)[C@@H](CC(C)C)C(=O)N[C@@H](C)C(=O)N[C@H](C)C(=O)N(C)[C@@H](CC(C)C)C(=O)N(C)[C@@H](CC(C)C)C(=O)N(C)[C@@H](C(C)C)C(=O)N1C (stereo partly drawn) [Example 24, [(R)-2-(N,N-Dimethylamino)ethyl-Sar]-3-[NMeIle]-4-cyclosporin] (cyclo(A[dA][NMeL][NMeL][NMeV][MeBmt][Abu][dNMeDab(Me2)][NMeIle(3ξ)]V[NMeL]))
  IC50: < 0.25 µM

## C/C=C/C[C@@H](C)[C@@H](O)[C@H]1C(=O)N[C@@H](CC)C(=O)N(C)[C@H](CCN(CC)CC)C(=O)N(C)[C@@H](CC(C)C)C(=O)N[C@@H](C(C)C)C(=O)N(C)[C@@H](CC(C)C)C(=O)N[C@@H](C)C(=O)N[C@H](C)C(=O)N(C)[C@@H](CC(C)C)C(=O)N(C)[C@@H](CC(C)C)C(=O)N(C)[C@@H](C(C)C)C(=O)N1C [Example 25, [(R)-2-(N,N-Diethylamino)ethyl-Sar]-3-cyclosporin]
  IC50: < 0.25 µM

## C/C=C/C[C@@H](C)[C@@H](O)[C@H]1C(=O)N[C@@H](CC)C(=O)N(C)[C@H](CCN(CC)CC)C(=O)N(C)[C@@H](CC(C)(C)O)C(=O)N[C@@H](C(C)C)C(=O)N(C)[C@@H](CC(C)C)C(=O)N[C@@H](C)C(=O)N[C@H](C)C(=O)N(C)[C@@H](CC(C)C)C(=O)N(C)[C@@H](CC(C)C)C(=O)N(C)[C@@H](C(C)C)C(=O)N1C [Example 26, [(R)-2-(N,N-Diethylamino)ethyl-Sar]-3-[(γ-hydroxy)-NMeLeu]-4-cyclosporin]
  IC50: < 0.25 µM

## C/C=C/C[C@@H](C)[C@@H](O)[C@H]1C(=O)N[C@@H](CC)C(=O)N(C)[C@H](CCN(CC)CC)C(=O)N(C)[C@@H](CC(C)(C)OC)C(=O)N[C@@H](C(C)C)C(=O)N(C)[C@@H](CC(C)C)C(=O)N[C@@H](C)C(=O)N[C@H](C)C(=O)N(C)[C@@H](CC(C)C)C(=O)N(C)[C@@H](CC(C)C)C(=O)N(C)[C@@H](C(C)C)C(=O)N1C [Example 27, [(R)-2-(N,N-Diethylamino)ethyl-Sar]-3-[(γ-methoxy)-NMeLeu]-4-cyclosporin]
  IC50: < 0.25 µM

## C=CCOC(C)(C)C[C@H]1C(=O)N[C@@H](C(C)C)C(=O)N(C)[C@@H](CC(C)C)C(=O)N[C@@H](C)C(=O)N[C@H](C)C(=O)N(C)[C@@H](CC(C)C)C(=O)N(C)[C@@H](CC(C)C)C(=O)N(C)[C@@H](C(C)C)C(=O)N(C)[C@@H]([C@H](O)[C@H](C)C/C=C/C)C(=O)N[C@@H](CC)C(=O)N(C)[C@H](CCN(CC)CC)C(=O)N1C [Example 28, [(R)-2-(N,N-Diethylamino)ethyl-Sar]-3-[(γ-allyloxy)-NMeLeu]-4-cyclosporin] (cyclo(A[dA][NMeL][NMeL][NMeV][MeBmt][Abu][X1][X2]V[NMeL]))
  IC50: < 0.25 µM

## C/C=C/C[C@@H](C)[C@@H](O)[C@H]1C(=O)N[C@@H](CC)C(=O)N(C)[C@H](CCN(CC)CC)C(=O)N(C)[C@@H](C(C)C)C(=O)N[C@@H](C(C)C)C(=O)N(C)[C@@H](CC(C)C)C(=O)N[C@@H](C)C(=O)N[C@H](C)C(=O)N(C)[C@@H](CC(C)C)C(=O)N(C)[C@@H](CC(C)C)C(=O)N(C)[C@@H](C(C)C)C(=O)N1C [Example 29, [(R)-2-(N,N-Diethylamino)ethyl-Sar]-3-[NMeVal]-4-cyclosporin] (cyclo(A[dA][NMeL][NMeL][NMeV][MeBmt][Abu][X1][NMeV]V[NMeL]))
  IC50: < 0.25 µM

## C/C=C/C[C@@H](C)[C@@H](O)[C@H]1C(=O)N[C@@H](CC)C(=O)N(C)[C@H](CCN(CC)CC)C(=O)N(C)[C@@H](C(C)CC)C(=O)N[C@@H](C(C)C)C(=O)N(C)[C@@H](CC(C)C)C(=O)N[C@@H](C)C(=O)N[C@H](C)C(=O)N(C)[C@@H](CC(C)C)C(=O)N(C)[C@@H](CC(C)C)C(=O)N(C)[C@@H](C(C)C)C(=O)N1C (stereo partly drawn) [Example 30, [(R)-2-(N,N-Diethylamino)ethyl-Sar]-3-[NMeIle]-4-cyclosporin] (cyclo(A[dA][NMeL][NMeL][NMeV][MeBmt][Abu][X1][NMeIle(3ξ)]V[NMeL]))
  IC50: < 0.25 µM

## C/C=C/C[C@@H](C)[C@@H](O)[C@H]1C(=O)N[C@@H](CC)C(=O)N(C)[C@@H](CCN(C)C)C(=O)N(C)[C@@H](CC(C)(C)O)C(=O)N[C@@H](C(C)C)C(=O)N(C)[C@@H](CC(C)C)C(=O)N[C@@H](C)C(=O)N[C@H](C)C(=O)N(C)[C@@H](CC(C)C)C(=O)N(C)[C@@H](CC(C)C)C(=O)N(C)[C@@H](C(C)C)C(=O)N1C [Example 32, [(S)-2-(N,N-Dimethylamino)ethyl-Sar]-3-[(γ-hydroxy)-NMeLeu]-4-cyclosporin]
  IC50: < 5 µM

## C/C=C/C[C@@H](C)[C@@H](O)[C@H]1C(=O)N[C@@H](CC)C(=O)N(C)[C@@H](CCN(CC)CC)C(=O)N(C)[C@@H](CC(C)(C)O)C(=O)N[C@@H](C(C)C)C(=O)N(C)[C@@H](CC(C)C)C(=O)N[C@@H](C)C(=O)N[C@H](C)C(=O)N(C)[C@@H](CC(C)C)C(=O)N(C)[C@@H](CC(C)C)C(=O)N(C)[C@@H](C(C)C)C(=O)N1C [Example 33, [(S)-2-(N,N-Diethylamino)ethyl-Sar]-3-[(γ-hydroxy)-NMeLeu]-4-Cyclosporin]
  IC50: < 5 µM

## C/C=C/C[C@@H](C)[C@@H](O)[C@H]1C(=O)N[C@@H](CC)C(=O)N(C)[C@H](CCCN(C)C)C(=O)N(C)[C@@H](CC(C)(C)O)C(=O)N[C@@H](C(C)C)C(=O)N(C)[C@@H](CC(C)C)C(=O)N[C@@H](C)C(=O)N[C@H](C)C(=O)N(C)[C@@H](CC(C)C)C(=O)N(C)[C@@H](CC(C)C)C(=O)N(C)[C@@H](C(C)C)C(=O)N1C [Example 37, [(R)-3-(N,N-Dimethylamino)propyl-Sar]-3-[(γ-hydroxy)-NMeLeu]-4-cyclosporin]
  IC50: < 0.25 µM

## C/C=C/C[C@@H](C)[C@@H](O)[C@H]1C(=O)N[C@@H](CC)C(=O)N(C)[C@H](CCCN(C)C)C(=O)N(C)[C@@H](CC(C)(C)OC)C(=O)N[C@@H](C(C)C)C(=O)N(C)[C@@H](CC(C)C)C(=O)N[C@@H](C)C(=O)N[C@H](C)C(=O)N(C)[C@@H](CC(C)C)C(=O)N(C)[C@@H](CC(C)C)C(=O)N(C)[C@@H](C(C)C)C(=O)N1C [Example 39, [(R)-3-(N,N-Dimethylamino)propyl-Sar]-3-[(γ-methoxy)-NMeLeu]-4-cyclosporin]
  IC50: < 0.25 µM

## C=CCOC(C)(C)C[C@H]1C(=O)N[C@@H](C(C)C)C(=O)N(C)[C@@H](CC(C)C)C(=O)N[C@@H](C)C(=O)N[C@H](C)C(=O)N(C)[C@@H](CC(C)C)C(=O)N(C)[C@@H](CC(C)C)C(=O)N(C)[C@@H](C(C)C)C(=O)N(C)[C@@H]([C@H](O)[C@H](C)C/C=C/C)C(=O)N[C@@H](CC)C(=O)N(C)[C@H](CCCN(C)C)C(=O)N1C [Example 41, [(R)-3-(N,N-Dimethylamino)propyl-Sar]-3-[(γ-allyloxy)-NMeLeu]-4-cyclosporin] (cyclo(A[dA][NMeL][NMeL][NMeV][MeBmt][Abu][X3][X2]V[NMeL]))
  IC50: < 0.25 µM

## C/C=C/C[C@@H](C)[C@@H](O)[C@H]1C(=O)N[C@@H](CC)C(=O)N(C)[C@H](CCCN(C)C)C(=O)N(C)[C@@H](C(C)C)C(=O)N[C@@H](C(C)C)C(=O)N(C)[C@@H](CC(C)C)C(=O)N[C@@H](C)C(=O)N[C@H](C)C(=O)N(C)[C@@H](CC(C)C)C(=O)N(C)[C@@H](CC(C)C)C(=O)N(C)[C@@H](C(C)C)C(=O)N1C [Example 43, [(R)-3-(N,N-Dimethylamino)propyl-Sar]-3-[NMeVal]-4-cyclosporin] (cyclo(A[dA][NMeL][NMeL][NMeV][MeBmt][Abu][X3][NMeV]V[NMeL]))
  IC50: < 0.25 µM

## C/C=C/C[C@@H](C)[C@@H](O)[C@H]1C(=O)N[C@@H](CC)C(=O)N(C)[C@H](CCCN(C)C)C(=O)N(C)[C@@H](C(C)CC)C(=O)N[C@@H](C(C)C)C(=O)N(C)[C@@H](CC(C)C)C(=O)N[C@@H](C)C(=O)N[C@H](C)C(=O)N(C)[C@@H](CC(C)C)C(=O)N(C)[C@@H](CC(C)C)C(=O)N(C)[C@@H](C(C)C)C(=O)N1C (stereo partly drawn) [Example 45, [(R)-3-(N,N-Dimethylamino)propyl-Sar]-3-[NMeIle]-4-cyclosporin] (cyclo(A[dA][NMeL][NMeL][NMeV][MeBmt][Abu][X3][NMeIle(3ξ)]V[NMeL]))
  IC50: < 0.25 µM
